Assays:
[1] = test system: Sprague-Dawley rats; conditions: general statement, no dose given; cited from earlier work
[2] = test system: Sprague-Dawley rats; assay: Chronic sciatic nerve ligation model in rats (mechanical allodynia, Von Frey); format: in vivo, rat; conditions: 30.0 mg/kg p.o., n=8/group
Text: Following a 10-day post-operative period after partial ligation of the sciatic nerve as described by Seltzer et al, each of the operated Sprague-Dawley rats (obtained from Charles River, Inc.) will be tested for the development of consistent, mechanical allodynia (pain response to a non-noxious stimulus). Animals are placed in a bottomless plexiglass box placed on a stainless steel platform with ¼″ holes. After at least a 30-min conditioning period in which rats are allowed to sit quietly in the cages on the platform, a baseline mechanical sensitivity is determined which represents the pre-drug 50% paw withdrawal threshold. […] The 50% threshold for foot withdrawal is determined by using the “Up and Down” step procedure. […] If the pressure of the largest diameter fiber raises the foot without a withdrawal, it is considered as “no response.” and recorded as >300 g on the data sheet.
Following the measurement of the initial predrug responses, the rats will be given an p.o. injection of tonabersat (n=8 rats per dose level). The mechanical threshold will then be assessed at 1, 2, 4, 6, 8, and 24 hrs post-injection to determine the duration of action of the test compound and the TPE in this model of mechanical allodynia. […]
The withdrawal threshold for each animal determined at each time point is computed using the “xoxox” step procedure originally developed by Dixon (1980). […]

[3] = test system: CF1 mouse; assay: Formalin-induced nociception model in mice (hyperalgesia and inflammation); format: in vivo; conditions: 45.0 mg/kg p.o., n=8/group; for Drug-treated AUC (duration of licking): formalin 1 hour after dosing
Procedure: An injection of 0.5% formalin is made into the planter region of a CF1 mouse (obtained from Charles River, Inc.) right hind paw. This elicits a distinct biphasic behavioral profile characterized by the mouse licking the affected paw. Immediately following the injection the mouse licks the paw for about 10 minutes. This is phase 1 (acute) and is followed by a brief latent period where there is little behavioral activity. A more prolonged period of about 20 to 30 minutes of paw licking ensues which constitutes phase 2 (inflammatory).
Prior to the administration of the test drug or vehicle each mouse undergoes a 15-minute conditioning period in one of several 6″ tall plexiglass observation tubes (4″ diameter) that are placed in front of a mirror. Following the conditioning period, doses of tonabersat will be administered p.o. and the mouse returned to its home tube. At a time determined to correlate with peak plasma levels (1 hour), formalin will be injected sub-dermally (20 ul; 27 gauge needle) into the plantar surface of the right hind foot. The bevel of the needle is placed facing down toward the skin surface. Following injection of the formalin each animal is observed for the first 2 minutes of each 5 minute epoch for a total of 45 minutes. The cumulative length of licking for each 2 minute time period is measured. An animal receiving the requisite volume of vehicle is alternated with each mouse given the test drug. Animals are euthanized following the conclusion of the experiment. An n of 8 mice per group will be employed in this study.
Area under the curve (AUC) determination is made using the GraphPad Prism Version 3.03. Total AUC is calculated for both the test and control groups for both the acute and inflammatory phases. The AUC for individual animals for each phase is also calculated and converted to percentage of total AUC of control. The average percentages and SEM for both the drug treated and control are calculated and tested for significant difference.

## CC(C)C[C@H](CN)CC(=O)O [pregabalin]
[1]
  Activity in sciatic nerve ligation model: active

## NCC1(CC(=O)O)CCCCC1 [gabapentin]
[1]
  Activity in sciatic nerve ligation model: active

## CC(=O)c1ccc2c(c1)[C@H](NC(=O)c1ccc(F)c(Cl)c1)[C@H](O)C(C)(C)O2 [Tonabersat, cis-6-acetyl-4-(S)-(3-chloro-4-fluorobenzoylamino)-3,4-dihydro-2,2-dimethyl-2H-1-benzopyran-3-(S)-ol]
[2]; at time of peak effect 6.0 h, p = <0.05
  % Control (threshold for foot withdrawal relative to predrug mean): 237.0%
[2]; threshold for foot withdrawal
  Time of peak effect: 6.0 h
[3]; Acute Phase, Control AUC 185.8
  Drug-treated AUC (duration of licking): 116.4
[3]; Acute Phase, p = >0.05
  % Inhibition of Control: 37.3%
[3]; Inflammatory Phase, Control AUC 446.7
  Drug-treated AUC (duration of licking): 135.8
[3]; Inflammatory Phase, p = <0.05
  % Inhibition of Control: 69.6%

— patent publication US20130018091A1, “TREATMENT OF ALLODYNIA AND HYPERALGESIA” (priority 2009, published 2013)
